Where a SMILES comes first, the peptide text is derived from it. [ ]: non-standard residue; d: D form. d2Thi = N[C@H](Cc1cccs1)C(=O)O; Nle = CCCC[C@H](N)C(=O)O
Assay: Pharmacokinetics in rats after intravenous bolus injection (systemic clearance)
Assay type: in vivo
Conditions: rat, plasma, 0.2 mg FB/kg, adult male Sprague-Dawley rats, i.v. bolus, dose 0.20 mg FB/kg, read-out: CL (ml/kg/min) Average
How it was run: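 Adult male Sprague-Dawley rats (3-4, doubly cannulated) given IV jugular bolus at 0.1-1.0 mg/kg; serial carotid blood to K2EDTA plasma, LC/MS/MS quantitation. CL = dose/kg divided by AUC∞ (noncompartmental, trapezoid); mean ± SD.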

Row | clearance [mL/kg/min] | Structure (SMILES)
1 | 0.26 | CCCC[C@H](NC(=O)[C@H](CCC(=O)O)NC(=O)[C@H](CC(=O)O)NC(=O)[C@H](CO)NC(=O)[C@H](Cc1ccccc1)NC(=O)[C@H](CO)NC(=O)CNC(=O)[C@H](CC(=O)O)NC(=O)CNC(=O)[C@@H](N)Cc1cnc[nH]1)C(=O)N[C@H](Cc1cccs1)C(=O)N[C@H](C(=O)N[C@H](C(=O)N[C@@H](CC(C)C)C(=O)N[C@@H](CC(=O)O)C(=O)N[C@@H](Cc1ccccc1)C(=O)N[C@@H](CC(C)C)C(=O)N[C@@H](C)C(=O)N[C@@H](C)C(=O)N[C@@H](CCCNC(=N)N)C(=O)N[C@@H](CC(=O)O)C(=O)N[C@@H](Cc1ccccc1)C(=O)N[C@H](C(=O)N[C@@H](CC(N)=O)C(=O)N[C@@H](Cc1c[nH]c2ccccc12)C(=O)N[C@@H](CC(C)C)C(=O)N[C@H](C(=O)N[C@@H](CCC(N)=O)C(=O)N[C@H](C(=O)N[C@@H](CCCCN)C(N)=O)[C@@H](C)O)[C@@H](C)CC)[C@@H](C)CC)[C@@H](C)CC)[C@@H](C)O [Compound 46, [Gly2,Nle10,D-Thi11,Phe16] hGLP-2 (1-30)-NH2] (H-HGDGSFSDE[Nle][d2Thi]TILDFLAARDFINWLIQTK-NH2)
2 | 0.3 | CCCC[C@H](NC(=O)[C@H](CCC(=O)O)NC(=O)[C@H](CC(=O)O)NC(=O)[C@H](CO)NC(=O)[C@H](Cc1ccccc1)NC(=O)[C@H](CO)NC(=O)CNC(=O)[C@H](CC(=O)O)NC(=O)CNC(=O)[C@@H](N)Cc1c[nH]cn1)C(=O)N[C@H](Cc1ccccc1)C(=O)N[C@H](C(=O)N[C@H](C(=O)N[C@@H](CC(C)C)C(=O)N[C@@H](CC(=O)O)C(=O)N[C@@H](Cc1ccccc1)C(=O)N[C@@H](CC(C)C)C(=O)N[C@@H](C)C(=O)N[C@@H](C)C(=O)N[C@@H](CCCNC(=N)N)C(=O)N[C@@H](CC(=O)O)C(=O)N[C@@H](Cc1ccccc1)C(=O)N[C@H](C(=O)N[C@@H](CC(N)=O)C(=O)N[C@@H](Cc1c[nH]c2ccccc12)C(=O)N[C@@H](CC(C)C)C(=O)N[C@H](C(=O)N[C@@H](CCC(N)=O)C(=O)N[C@H](C(=O)N[C@@H](CCCCN)C(N)=O)[C@@H](C)O)[C@@H](C)CC)[C@@H](C)CC)[C@@H](C)CC)[C@@H](C)O [Compound 47, [Gly2,Nle10,D-Phe11,Phe16] hGLP-2 (1-30)-NH2] (H-HGDGSFSDE[Nle][dF]TILDFLAARDFINWLIQTK-NH2)
3 | 0.37 | CCCC[C@H](NC(=O)[C@H](CCC(=O)O)NC(=O)[C@H](CC(=O)O)NC(=O)[C@H](CO)NC(=O)[C@H](Cc1ccccc1)NC(=O)[C@H](CO)NC(=O)CNC(=O)[C@H](CC(=O)O)NC(=O)CNC(=O)[C@@H](N)Cc1cnc[nH]1)C(=O)N[C@H](Cc1ccccc1)C(=O)N[C@H](C(=O)N[C@H](C(=O)N[C@@H](CC(C)C)C(=O)N[C@@H](CC(=O)O)C(=O)N[C@@H](CC(C)C)C(=O)N[C@@H](CC(C)C)C(=O)N[C@@H](C)C(=O)N[C@@H](C)C(=O)N[C@@H](CCCNC(=N)N)C(=O)N[C@@H](CC(=O)O)C(=O)N[C@@H](Cc1ccccc1)C(=O)N[C@H](C(=O)N[C@@H](CC(N)=O)C(=O)N[C@@H](Cc1c[nH]c2ccccc12)C(=O)N[C@@H](CC(C)C)C(=O)N[C@H](C(=O)N[C@@H](CCC(N)=O)C(=O)N[C@H](C(=O)N[C@@H](CCCCN)C(N)=O)[C@@H](C)O)[C@@H](C)CC)[C@@H](C)CC)[C@@H](C)CC)[C@@H](C)O [Compound 48, [Gly2,Nle10,D-Phe11,Leu16] hGLP-2 (1-30)-NH2] (H-HGDGSFSDE[Nle][dF]TILDLLAARDFINWLIQTK-NH2)

Reference: US8580918B2, “Peptidic GLP-2 agonists” (Ferring B.V., priority 2009, dated 2013)
